“Also recorded” adds a separate entry of the source.
Key:
Type in all cases: cell-based, Staphylococcus aureus
S. aureus [1] = assay: Two dimensional drug interaction analysis between tunicamycin and targocil; details: normally inhibitory concentrations of targocil; 18 h at 30° C.
Experimental: (A) Targocil MIC data for a panel of Gram-positive strains, including MRSA clinical isolates B5271 and 5340A. Growth was monitored in triplicate after 12 h at 28° C. using optical density. (B) Two dimensional drug interaction analysis between tunicamycin and targocil grown for 18 h at 30° C. […] At higher concentrations, tunicamycin is toxic because it inhibits cell wall biosynthesis. […] Varying concentrations of drug were added to […] of S. aureus RN4220 after 5 h and cell count was monitored over time at 30° C. […] Cells were grown at 28° C. for 12 h and monitored for growth using optical density (OD600). Data were normalized to the DMSO controls for each strain. (E) Two classes of mutants were examined: phage resistant (m1 3) and phage sensitive (m4-5).
Having discovered targocil, the next challenge was to identify its target in S. aureus. We first used the natural product tunicamycin to verify that targocil requires the presence of a functional WTA pathway. Although toxic at high concentrations, tunicamycin is a selective TarO inhibitor that abolishes WTA expression at sublethal concentrations. (Hancock I C, Wiseman G, & Baddiley J (1976) Febs Letters 69:75-80) We predicted that tunicamycin should antagonize targocil by preventing flux into the WTA biosynthetic pathway. […]

[2] = tested on: WTA biosynthesis in S. aureus RN4220; assay: PAGE analysis of WTAs isolated from S. aureus RN4220 grown with tunicamycin; details: increasing but sub-lethal concentrations of tunicamycin
S. aureus RN4220 = assay: Phage infection (PFUs) of S. aureus grown with tunicamycin; details: increasing tunicamycin
S. aureus [3] = assay: SAR of targocil analogs: MIC and mutation frequency
Excerpt: Based on the discovery of targocil as an inhibitor of WTA biosynthesis, further studies of the antibiotic were undertaken to elucidate the basis of its activity and to discover other antibiotics based on the structure of targocil. The goal for the initial SAR of targocil was to alter only the A ring to determine modifications that would improved potency as measured by MIC. We developed synthetic chemistry schemes to modify the targocil scaffold and, initially, nineteen different derivatives of targocil were made. […] Modifications to the D ring appear particularly promising. Finally, the optimized compounds from this second round of SAR could then be used to discover modifications to the amine group that could be tolerated.

Row | Compound | antagonism of targocil by tunicamycin (S. aureus [1]) | WTA biosynthesis (PAGE of isolated WTAs) [2] | phage infection (PFUs) (S. aureus RN4220) | mutation frequency, relative to targocil (S. aureus [3]; in vitro) | potency as measured by MIC, relative to targocil (S. aureus [3]; two methoxy groups at R1 and R2 of ring A)
1 | tunicamycin | complete protection; also recorded: antagonizes the lethal effect of targocil | dose-dependent decrease | dose-dependent decrease |  | 
2 | CCN(CC)c1nc2c(S(=O)(=O)c3ccccc3)nnn2c2cc(OC)c(OC)cc12 [Compound 4-22-7, N,N-Diethyl-7,8-dimethoxy-3-(phenylsulfonyl)-[1,2,3]triazolo[1,5-a]quinazolin-5-amine] |  |  |  | better | more potent

Reference: patent publication US8598342B2, “Methods and compounds for antimicrobial intervention” (President and Fellows of Harvard College, priority 2008, dated 2013)
